KD and binding data for one molecule are collected here from paper PMC10761377 (2023).

Experiment [1] deals with FPAS (fipronil aptamer Short) (DNA, aptamer) AGTTTCTGGAGGACTGGGCGGGGTGACGGTTATG
The experiment in a line: chronoamperometric binding titration on SPCE (streptavidin-HRP/TMB). Particulars: NaCl 100 mM, MgCl2 2 mM; Tris-HCl 20 mM; 30 min; apparent; immobilised compound (amide-linked to poly-2-aminobenzoic acid electrode); logistic fit.

The test system is the same in experiment [2]. The experiment in a line: electrochemical competitive replacement assay (chronoamperometry). Conditions: free fipronil displaces 1 µM-loaded aptamer from immobilised fipronil; 1 h.
The test system of experiment [3] is FPAP (fipronil aptamer with primers) (DNA, aptamer) TGTACCGTCTGAGCGATTCGTACAGTTTCTGGAGGACTGGGCGGGGTGACGGTTATGAGCCAGTCAGTGTTAAGGAGTGC
Kind of experiment: chronoamperometric binding titration on SPCE (streptavidin-HRP/TMB). Particulars: NaCl 100 mM, MgCl2 2 mM; Tris-HCl 20 mM; 30 min; apparent; immobilised compound (amide-linked to poly-2-aminobenzoic acid electrode); logistic fit.

`N#Cc1nn(-c2c(Cl)cc(C(F)(F)F)cc2Cl)c(N)c1S(=O)C(F)(F)F` (stereo not drawn): the KD in experiment [1] was found to be 24.9 ± 1.7 nM; in experiment [3] it was 94.3 ± 0.5 nM. Moreover, the binding result in experiment [2] is on record as “yes”.
